Laboratory results: US20020193425A1, “Cancer chemopreventative compounds and compositions and methods of treating cancers” (priority 2001, published 2002)

Key:
[1] = tested on: JB6 cells; details: dose-dependent manner; cited from earlier work
[2] = tested on: RS4;11 cells; assay: Membrane phenotype, cell surface antigen by flow cytometry; format: cell-based; details: Brusatol 25 ng/ml, 4-day protocol
Protocol: (§1) Cell lines were tested using a 4-day incubation protocol, unless otherwise specified.
(§2) 3) Determination of cell surface antigen by flow cytometry. Cells (10^6) were washed with PBS and then incubated for 30 min at room temperature with respective monoclonal antibodies, washed with 20 volumes of diluent (PBS with 0.1% sodium azide and 1% BSA), and resuspended in 0.5 ml of fresh diluent for evaluation. Necrotic cells were excluded from the analysis by propidium iodide (PI) staining. The following mAbs (Sigma, St. Louis, Mo.) were used to assess the maturation level of myeloid cell lines: antiCD15 (Leu M1), antiCD-11b (OKM1), antiCD14 and antiCD13. The following mAbs (Sigma, St. Louis, Mo.) were used to assess the maturation level of lymphocytic cell lines: antiCD20, antiHLA-DR and antikappa light chain.
(§3) Cells were induced to differentiate with the indicated concentrations of brusatol using a 4-day protocol and then analyzed for membrane markers of differentiation as described under “Materials and methods”. Results are expressed as the specific mean fluorescence intensity (ratio of antigen antibody flourescence over isotype antibody fluorescence), and represents the mean of two independent studies.

[3] = tested on: Kasumi-1; assay: as above; format: cell-based; details: 4-day protocol
Protocol: as §1, §2, §3

[4] = tested on: U937 cells; assay: as above; format: cell-based; details: Brusatol 12.5 ng/ml, 4-day protocol
Protocol: as §1, §2, §3

[5] = tested on: NB4 cells; assay: as above; format: cell-based; details: Brusatol 10 ng/ml, 4-day protocol
Protocol: as §1, §2, §3

[6] = tested on: K562 cells; assay: as above; format: cell-based; details: Brusatol 25 ng/ml, 4-day protocol
Protocol: as §1, §2, §3

[7] = tested on: HL-60 cells; assay: In vivo hollow fiber test
Protocol: As a preliminary test of in vivo efficacy, a hollow fiber study was performed. The in vivo hollow fiber test was performed using literature procedures with some modifications (see M. G. Hollingshead et al., Life Sic., 57, pages 131-141 (1995)). HL-60 cells were cultured in RPMI 1640 medium and collected by centrifugation and resuspended in conditioned medium at a concentration of 2.5×10^6 cells/ml. Fibers filled with cells were incubated in 6-well plates overnight at 37° C. in a 5% CO2 atmosphere. Female athymic NCr nu/nu mice at 5-6 weeks of age were obtained from Frederick Cancer Research Facility. Each mouse hosted up to 6 fibers, which were cultured in two physiologic compartments. For intraperitoneal implants, a small incision was made through the skin and musculature of the dorsal abdominal wall, the fiber samples were inserted into the peritoneal cavity in a craniocaudal direction, and the incision was closed with skin staples. For subcutaneous implants, a small skin incision was made at the nape of the neck to allow insertion of an 11-gauge tumor implant trocar. The trocar, containing the hollow fiber samples, was inserted caudally through the subcutaneous tissues and fibers were deposited during withdrawal of the trocar. The incision was closed with a skin staple.
In preliminary studies, cell growth was assessed with fibers containing various cell densities. […] For treatment protocols, brusatol was dissolved in PBS. Mice were randomized into 7 groups: PBS vehicle control group (6 mice per group); 0.25, 0.5, 1.25, 2.5, 5, 12.5 mg/kg of brusatol (3 mice per group). Test compound brusatol was administered once daily by intraperitoneal injection from day 3-6 after implantation. Body weights were measured daily.
On day 7, mice were sacrificed and fibers were retrieved. […] Aliquots (150 μl) of extracted MTT formazan were transferred to Individual wells of 96-well plates and assessed for optical density at a wavelength of 540 nm. The effect of the treatment regimen was determined by the net growth percentage of the cells relative to change in […].

[8] = tested on: HL-60; assay: NBT-reduction differentiation assay, leukemic panel; format: cell-based, human; details: 4 days
Protocol: as §1
2) NBT/NSE/SE. Evaluation of NBT reduction was used to assess the ability of sample-treated cells to produce superoxide when challenged with TPA. A 1:1 (v/v) mixture of a cell suspension (10^6 cells) and TPA/NBT solution (2 mg/ml NBT and 1 μg/ml TPA in phosphate buffer saline (PBS)) was incubated for 1 h at 37° C. Then, cells were smeared on glass slides, and counterstained with 0.3% (w/v) safranin O in methanol. Positive cells reduce NBT yielding intracellular black-blue formazan deposits. NSE/SE are monocytic/granulocytic esterases that can be visualized by cytochemical staining using commercially available kits (α-Naphthyl Acetate Esterase and Naphthol As-D Chloroacetate Esterase kits, Sigma Chemical Co., St. Louis, Mo.). Positive-stained cells were quantified by microscopic examination of >200 cells. Results were expressed as a percentage of positive cells.
Concentration-dependent effect of brusatol on: (a) NBT-reduction (monocyte/granulocyte marker) of HL-60, K562, NB4, U937, and BV173 and (b) NSE expression (monocyte marker) in K562, Kasumi-1, NB4, and BV173 cells, respectively. Data points are the mean of duplicate samples.

[9] = tested on: Kasumi-1; assay: Cytotoxicity, viability by Trypan blue exclusion; details: four days
Protocol: HL-60, K562, U937, Reh and Daudi cells were obtained from the American Type Culture Collection (Rockville, Md.). Kasumi-1, NB4, BV173, SUPB13, and RS4;11 cells were provided by the Section of Hematology/Oncology, University of Illinois College of Medicine, Chicago, Ill. All cell lines were maintained in suspension culture using RPMI 1640 medium supplemented with 10% heat-inactivated fetal bovine serum, 100 units of penicillin/ml and 100 μg of streptomycin/ml at 37° C. in a humidified atmosphere of 5% CO2 in air. All cells were routinely tested for mycoplasma contamination.
Cellular viability was monitored by Trypan blue exclusion. Inhibition of [3H]thymidine incorporation into DNA was determined to assess the level of cell proliferation as well as DNA synthesis inhibition. […] The filters were counted using a Microbeta™ liquid scintillation counter (Wallac, Turku, Finland) with scintillation fluid. Finally, the percentage of [3H]thymidine incorporation per 10^6 cells was calculated by dividing the dpm of sample-treated cells by the dpm of DMSO-treated cells.
(§4) ^aViability was determined by Trypan blue exclusion in duplicate samples. […] Results are expressed as median inhibitory cell concentrations of two independent experiments (±standard deviations).

[10] = Cytotoxicity, viability by Trypan blue exclusion; details: human
Protocol: Human blood (20 ml) was collected in heparinized sterile tubes and white blood cells were separated using Ficoll reagent (8 ml/5 ml blood diluted in 15 ml Hank's buffered solution). After centrifugation at low speed (1500 rpm) for 30 min, the white coat was removed and washed 3-times with Hank's buffered solution. The cell pellet was resuspended in RPMI 1640 medium supplemented with 10% FBS. This preparation contained >90% lymphocytes and <5% monocytes, as determined by Wright-Giemsa staining.
Cellular viability was monitored by Trypan blue exclusion.
as §4

[11] = human beings; single intravenous injection of 3 mg/m^2; cited from earlier work
[12] = tested on: metastatic breast cancer and malignant melanoma; details: phase II trials, adult patients with metastatic breast cancer and malignant melanoma; cited from earlier work

COC(=O)[C@@]12OC[C@]34[C@H]([C@@H](O)[C@@H]1O)[C@@]1(C)CC(=O)C(O)=C(C)[C@@H]1C[C@H]3OC(=O)[C@H](OC(=O)C=C(C)C)[C@@H]24 [compound 1, brusatol]
TPA-induced anchorage-independent growth of JB6 cells [1]: inhibits | CD11b, specific mean fluorescence intensity [2]: 1.2 ± 0.1 | CD13, specific mean fluorescence intensity [2]: 1.3 ± 0.2 | CD15, specific mean fluorescence intensity [2]: 151.9 ± 42.1 | membrane markers of differentiation, change between control and treated cells [3]: did not show any changes | CD11b, specific mean fluorescence intensity [4]: 2.5 ± 0.2 | CD13, specific mean fluorescence intensity [4]: 55.7 ± 1.1 | CD14, specific mean fluorescence intensity [4]: 9.6 | CD15, specific mean fluorescence intensity [4]: 28.5 ± 4.3 | CD11b, specific mean fluorescence intensity [5]: 1.2 ± 0.5 | CD13, specific mean fluorescence intensity [5]: 156.1 ± 54.3 | CD14, specific mean fluorescence intensity [5]: 1.3 | CD15, specific mean fluorescence intensity [5]: 18.5 ± 0.4 | CD11b, specific mean fluorescence intensity [6]: 1.0 ± 0.1 | CD13, specific mean fluorescence intensity [6]: 1.4 ± 0.2 | CD14, specific mean fluorescence intensity [6]: 1.0 | CD15, specific mean fluorescence intensity [6]: 4.6 ± 1.1 | inhibition at s.c. site ([7]; HL-60 hollow fibers, 5 mg/kg): 80.8% | inhibitory percentage at s.c. site ([7]; HL-60 hollow fibers, doses from 0.25 mg/kg, below 5 mg/kg): around 25% | lethality ([7]; mice, 12.5 mg/kg): lethal | NBT-reduction, peak induction [8]: 75% | Cytotoxicity (IC50, ng/ml) [9]: 75 ± 5.1 ng/mL | viability at 3 days, 100 ng/ml ([10]; peripheral blood lymphocytes stimulated with concanavalin A): ~90% | IC50 at 3 days ([10]; peripheral human lymphocytes): > 0.1 µg/mL

COC(=O)[C@@]12OC[C@]34[C@H]([C@@H](O)[C@@H]1O)[C@@]1(C)CC(=O)C(O)=C(C)[C@@H]1C[C@H]3OC(=O)[C@H](OC(=O)/C=C(\C)C(C)C)[C@@H]24 [compound 2, bruceantin]
blood level [11]: 22 ng/mL | objective tumor regressions [12]: No objective tumor regressions were observed
